# Data from patent US12357924B2, “Process for producing enriched fraction from Bacopa monnieri extract for management of neurodegenerative disorders” (STAR HI HERBS PVT LTD, priority 2021, dated 2025).
# Tests used:
# [1] = test system: locomotor activity of the rats; assay: Actophotometer method (locomotor activity); type: in vivo, Wistar strain rats; conditions: diazepam 1 mg/kg
# Procedure: In further embodiment of the present invention the anxiolytic effect of Bacopa monnieri extract Bacosane is determined by employing 4 different tests i.e., the elevated plus maze (EPM) test, open field test (OFT), Astrophotometer test and Light dark transition test. The compounds used in these four tests comprises Bacopa monnieri extract Bacosane; and Diazepam (1 mg/kg, i.p.) which is used as standard anxiolytic agent. The four tests are performed on Wistar strain rats of both sex of weighing 130 to 180 g, which were divided into four groups of six rats each (Group I, Group II, Group III and Group IV)
# In this test, the rats are placed in the digital Actophotometer in which a constant beam of light from six lights will be made to fall on corresponding photoelectric cells. The photoelectric cells get activated when an animal crosses the beam of light and thereby cuts off (crossing) the rays of light falling on it. After 1 hour of Bacopa Monnieri extract Bacosane administration the numbers of crossings are counted for a period of 10 minutes by the actophotometer. […]
# [2] = test system: behavior of rats in elevated plus maze; assay: Elevated plus maze test; type: in vivo, Wistar strain rats; conditions: 5 minutes test; Bacosane 50 and 100 mg/kg p.o., diazepam 1 mg/kg; vs vehicle
# Procedure: (§1) In further embodiment of the present invention the anxiolytic effect of Bacopa monnieri extract Bacosane is determined by employing 4 different tests i.e., the elevated plus maze (EPM) test, open field test (OFT), […] test and Light dark transition test. The compounds used in these four tests comprises Bacopa monnieri extract Bacosane; and Diazepam (1 mg/kg, i.p.) which is used as standard anxiolytic agent. The four tests are performed on Wistar strain rats of both sex of weighing 130 to 180 g, which were divided into four groups of six rats each (Group I, Group II, Group III and Group IV)
# (§2) Group I vehicle (normal saline) at a dose of 10 ml/kg body weight
# (§3) Group II received Bacopa monnieri extract Bacosane, at a dose of 50 mg/kg body weight
# (§4) Group III received Bacopa monnieri extract Bacosane, at a dose of 100 mg/kg body weight
# (§5) Group IV received standard drug, diazepam 1 mg/kg body weight
# FIG. 9 depicts comparison of effect of Bacopa monnieri extract Bacosane and diazepam in behavior of rats in elevated plus maze test. […] The percentage of time spent (duration) in open arms and frequency of open arm entries were counted for a period of 5 minutes. […] The percentage of time spent in the open arms and number of open arm entries were calculated using the formulas [100×open/(open+enclosed)] and (100×open/total entries), respectively.
# [3] = test system: behavior of rats in open field; assay: Open field test; type: in vivo, Wistar strain rats; conditions: 5 minutes; Diazepam 1 mg/kg, Bacosane 50 mg/kg and 100 mg/kg; vs normal saline
# Procedure: as §1, §2, §3, §4, §5
# FIG. 11 depicts comparison of effect of Bacopa monnieri extract Bacosane and Diazepam on behavior of rats in open field test. The apparatus comprises a wooden box (60×60×60 cm). The area of the open field was divided into 16 squares (15×15 cm), the four inner squares in the center and 12 squares in the periphery along the walls. The other identical condition comprises of sound attenuated and dark experimental room. […]
# [4] = test system: PTZ induced tonic-clonic convulsions; assay: Pentylenetetrazole (PTZ) induced convulsions model; type: in vivo, rats; conditions: phenytoin sodium 25 mg/kg orally
# Procedure: (§6) In further embodiment of the present invention the anticonvulsant activity of Bacopa monnieri extract Bacosane is determined using Pentylenetetrazole (PTZ) and the maximal electroshock seizure (MES) models. The analysis is performed on healthy Swiss mice of either sex, weighing about 25-30 g and Wistar rats of either sex, weighing about 150-200 g. The animals were grouped and housed in polyacrylic cages (38×23×10 cm) with not more than six animals per cage and maintained under standard laboratory conditions (temperature 25° C.) with dark and light cycle (12/12 h). All the animals were acclimatized to laboratory condition for a week before commencement of the analysis. The animals were randomly allocated into four groups of six each: Group I (control group), Group II, Group III, Group IV.
# Group-I received 10 ml/kg of 1% NaCMC p.o. which served as control. […]
# In the above analysis the percentage protection of animals was recorded as percentage of reduction in duration of seizures wherein the control group is assumed as 100%. […]
# FIG. 5 depicts graphical representation of effect of Bacopa Monnieri extract Bacosane on tonic-clonic convolution in Pentylenetetrazole (PTZ) induced model in rats. […] The onset of convulsions, number of animals that convulsed and number of animals that were protected from clonic convulsions were recorded.
# MES induced convulsion = assay: Maximal electroshock induced seizures (MES) model; type: in vivo, albino Wister rats
# Procedure: as §6
# Group-I received 10 ml/kg of 1% NaCMC p.o. which served as control.
# Group-II received phenytoin sodium (25 mg/kg, orally) as standard controls in MES method and PTZ induced seizures method respectively.
# Group-III and IV were administered two graded doses of Bacopa monnieri extract Bacosane i.e., 50 mg/kg and 100 mg/kg, respectively, p.o.
# In the above analysis the percentage protection of animals was recorded as percentage of reduction in duration of seizures wherein the control group is assumed as 100%. The observations of group II, III and IV were compared with control Group-I. It is observed that Bacopa monnieri extract Bacosane has potential anticonvulsant activity due to the presence of certain active phytoconstituents. The anticonvulsant activity of Bacopa monnieri extract Bacosane involves GABAergic transmission and glutaminergic transmission or sodium channel blockage. However, it can be considered that the Bacopa monnieri extract Bacosane as a potent anticonvulsant supplement. The analysis and observations of Pentylenetetrazole (PTZ) and the maximal electroshock seizure (MES) models is shown in FIG. 3 to FIG. 6.
# FIG. 3 is the graphical representation of effect of Bacopa Monnieri extract Bacosane on tonic extension phase in MES induced convulsion. […]
# hippocampus = conditions: sub-chronic and chronic administration, 30 mg/kg; cited from earlier work
# [5] = DPPH free radical scavenging assay; type: biochemical; conditions: 0.1 mM DPPH in methanol, 30 minutes, absorbance at 517 nm
# Procedure: The free radical scavenging activity of Bacopa monnieri extract Bacosane and BHT is determined through the process comprising steps of: preparing solution of 0.1 mM DPPH in methanol, and 1.5 mL of this solution was mixed with 1.5 mL of extract in methanol at different concentrations (50, 100, 150, 200 and 250 m/mL); and measuring the absorbance at 517 nm, after leaving the above mixture for 30 minutes of incubation at dark room. Butylated hydroxytoluene (BHT) was used as the reference standard at different concentrations (20, 40, 60, 80 and 100 m/m1). The radical scavenging activity of DPPH was calculated using the following equation: [A0-A1)/A0]×100 where A0 is the absorbance of the control, and A1 is the absorbance of the standard. Then the percentage (%) of inhibition was plotted against concentration of the Bacopa monnieri extract Bacosane and BHT, and from the graph as shown in FIGS. 7A-7B half-maximal inhibitory concentration (IC50) was calculated to determine the efficacy of Bacopa monnieri extract Bacosane in comparison to standard butylated hydroxytoluene (BHT).
smiles,measurement,setting,value
CN1C(=O)CN=C(c2ccccc2)c2cc(Cl)ccc21 [Diazepam],number of crossings of light beams compared to control group,[1],significantly reduced
same,closed arm number of entries and time spent,[2],significantly decreased
same,percentage of number of open arm entries and time spent in open arm,[2],significant increase
same,"anxiolysis (increased ambulation, rearing and preening, decreased defecations)",[3],significantly exhibited anxiolysis
"O=C1NC(=O)C(c2ccccc2)(c2ccccc2)N1 [Phenytoin, phenytoin sodium]","anticonvulsant effect (latency, onset of clonic convulsions, onset of tonic seizures)","[4]; PTZ 90 mg/kg i.p., Bacosane 50 and 100 mg/kg orally",significantly anticonvulsant activity
same,protection,[4]; PTZ model,100%
same,hind limb tonic extension,"MES induced convulsion; MES model, compared to control group",decreased
same,extensor phase,"MES induced convulsion; MES model, phenytoin sodium 25 mg/kg orally",abolished the extensor phase completely
same,protection in animals against MES,MES induced convulsion; phenytoin sodium 25 mg/kg orally,100%
C[C@H]1[C@H](C)CC[C@]2(C(=O)O)CC[C@]3(C)C(=CC[C@@H]4[C@@]5(C)C[C@@H](O)[C@H](O)[C@@](C)(CO)[C@@H]5CC[C@]43C)[C@H]12 [asiatic acid],cell proliferation in the hippocampus,hippocampus,increase
same,spatial working memory,hippocampus,stimulate
"Cc1cc(C(C)(C)C)c(O)c(C(C)(C)C)c1 [butylated hydroxytoluene (BHT), butylated hydroxytoluene]","half-maximal inhibitory concentration (IC50), DPPH free radical scavenging",[5],150.50 µg/mL
